Assay: HPLC (H3PO4) log P determination
Type: physicochemical

SMILES	log P	chromatographic logP
C[S+]([O-])c1c(C(F)(F)F)ccc(C(=O)O)c1Cl (racemic) [Example 1 Step 1, 2-chloro-3-[(S,R)-methylsulfinyl]-4-(trifluoromethyl)benzoic Acid]	0.96	–
C[S@+]([O-])c1c(C(F)(F)F)ccc(C(=O)O)c1Cl [Example 1, 2-chloro-3-[(S)-methylsulfinyl]-4-(trifluoromethyl)benzoic acid]	–	1
